The subject of series [1] is RAW264.7. Kind of series: Inhibition of NO production in LPS-stimulated mouse RAW264.7 cells pre-incubated for 2 hrs before LPS stimulation for 24 hrs by Griess assay method. The class given is functional, cell-based.
For series [2], the system named is RAW264.7. Kind of series: Cytotoxicity against mouse RAW264.7 cells at 0.01 to 100 uM after 24 hrs by MTT assay. The format is cell-based. The note with it: raw264.7, 24 h.

`C=C(C(=O)O)[C@@H]1CC[C@H](C)[C@]2(O)CC(=O)C(C)=C2C1` registered an IC50 in the series with RAW264.7 [1] of 0.18 µM. In addition, the Activity entry in the series on RAW264.7 [2] is reported as “Non-toxic”. Compound `C=C(C(=O)O)[C@@H]1CC[C@](C)(O)[C@@H]2CC(=O)C(C)=C2C1` yielded an IC50 in the series on RAW264.7 [1] of 0.47 µM. Besides, in the series on RAW264.7 [2], the Activity entry is “Non-toxic”. Consider `C=C(C(=O)O[C@@H]1O[C@H](CO)[C@@H](O)[C@H](O)[C@H]1O)[C@@H]1CC[C@H](C)[C@@H]2CC(=O)C(C)=C2C1`, for which, in the series with RAW264.7 [1], the IC50 amounted to 4.6 µM. In the series with RAW264.7 [2], the Activity result is on record as “Non-toxic”. On the same counts, the results for `COc1cc(-c2oc3cc(OC)c(OC)c(O)c3c(=O)c2O)ccc1O` are 4.75 µM and “Non-toxic”. Taken in the same sequence, the figures for `COc1ccc(Oc2cc(=O)c3c(O)cc(O[C@@H]4O[C@H](CO)[C@@H](O)[C@H](O)[C@H]4O)cc3o2)cc1` were 21.4 µM and “Non-toxic”. `COc1ccc(-c2cc(=O)c3c(O)cc(O[C@@H]4O[C@H](CO)[C@@H](O)[C@H](O)[C@H]4O)cc3o2)cc1OC` had an IC50 in the series with RAW264.7 [1] of 9.51 µM. For the same compound, the Activity entry in the series on RAW264.7 [2] is on record as “Non-toxic”. Consider `COC(=O)[C@@]1(O)C[C@@H](O)[C@@H](OC(=O)/C=C/c2ccc(O)c(O)c2)[C@H](OC(=O)/C=C/c2ccc(O)c(O)c2)C1`, for which the 50% inhibitory concentration (IC50) in the series with RAW264.7 [1] stood at 23.3 µM. For the same compound, the Activity result in the series on RAW264.7 [2] is reported as “Non-toxic”. `O=C(/C=C/c1ccc(O)c(O)c1)O[C@@H]1[C@H](O)C[C@](O)(C(=O)O)C[C@H]1OC(=O)/C=C/c1ccc(O)c(O)c1` (relative stereo): half-maximal inhibition in the series with RAW264.7 [1] (IC50) was put at 20.2 µM. Further, the Activity entry in the series with RAW264.7 [2] is reported as “Non-toxic”. On the same counts, the results for `COc1ccc(-c2cc(=O)c3c(O)cc(O[C@@H]4O[C@H](CO[C@@H]5O[C@@H](C)[C@H](O)[C@@H](O)[C@H]5O)[C@@H](O)[C@H](O)[C@H]4O)cc3o2)cc1` [ACACIIN] are 10 µM and “Non-toxic”.

Turning to `COc1cc(-c2cc(=O)c3c(O)cc(O)cc3o2)ccc1O` [CHRYSOERIOL], inhibition in the series on RAW264.7 [1] was half-maximal at 0.24 µM (IC50). `O=c1cc(-c2ccc(O)c(O)c2)oc2cc(O[C@@H]3O[C@H](CO)[C@@H](O)[C@H](O)[C@H]3O)cc(O)c12` [GALUTEOLIN]: the midpoint of inhibition in the series with RAW264.7 [1], the IC50, lay at 8.3 µM. In the series with RAW264.7 [2], the Activity entry is “Non-toxic”. On the same counts, the results for `O=c1cc(-c2ccc(O)c(O)c2)oc2cc(O)cc(O)c12` [LUTEOLIN] are 0.21 µM and “Non-toxic”. Compound `COc1ccc(-c2cc(=O)c3c(O)c(OC)c(O)c(OC)c3o2)cc1` [NEVADENSIN] came in with a 50% inhibitory concentration (IC50) in the series with RAW264.7 [1] of 5.08 µM. Further, in the series with RAW264.7 [2], the Activity entry is “Non-toxic”. The compound `C=C(C(=O)O)[C@@H]1CC[C@H](C)[C@@H]2CC(=O)C(C)=C2C1` [PECHUELOIC ACID] showed an IC50 in the series with RAW264.7 [1] of 3.04 µM. In the series on RAW264.7 [2], the Activity entry was “Non-toxic”. Compound `N=C(N)NN` [PIMAGEDINE] registered an IC50 in the series with RAW264.7 [1] of 0.23 µM. For `COc1ccc(-c2cc(=O)c3c(O)cc(O[C@@H]4O[C@H](CO)[C@@H](O)[C@H](O)[C@H]4O)cc3o2)cc1` [TILIANINE], the 50% inhibitory concentration (IC50) in the series on RAW264.7 [1] worked out at 8.94 µM. Further, the Activity entry in the series with RAW264.7 [2] was “Non-toxic”.

For the origin of these results see ChEMBL document CHEMBL3352494, “New guaiane sesquiterpenes from Artemisia rupestris and their inhibitory effects on nitric oxide production” (Bioorg Med Chem Lett, 2014).
